What all share (assay): growth of human tumour cells (NCI), 48 h
In assay [1] the test system is HOP-62.
In assay [2] the test system is SN12C.
Assay [3] concerns NCI/ADR-RES.
Assay [4] deals with HL-60.
Assay [5] has as its system HCT-15.
Assay [6] concerns SF-268.
Assay [7] relates to SNB-19.
The subject of assay [8] is NCI-H226.
For assay [9], the system named is PC-3.
The test system of assay [10] is NCI-H460.
Assay [11] concerns MOLT-4.
In assay [12] the test system is SF-539.
Assay [13] deals with T47D.
Assay [14] deals with SK-MEL-28.
Assay [15] deals with UO-31.
The subject of assay [16] is RXF 393.
Assay [17] concerns ACHN.
Assay [18] relates to OVCAR-3.
In assay [19] the test system is SNB-75.
The subject of assay [20] is A549.

The structures appear in SMILES notation.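 Growth conditions: 96-well plates. Treatment: test compound, 48 hours, 5 concentrations. Analysis: linear interpolation between bracketing concentrations; unreached endpoints set to highest concentration. GI50: concentration for 50% inhibition of growth.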 Activity calls are given as the source filed them. Rule as the data show it: active = GI50 up to about 1.1 µM and inactive = higher. Square brackets hold non-standard residues; d marks the D form. Peptide text beside a SMILES is read from it. pGlu = O=C1CC[C@@H](C(=O)O)N1; Thz = O=C(O)[C@@H]1CSCN1 Where only a bound is given, the exact number is not on record here.

Take `COC(=O)C1=C(C(=O)OC)N(c2ccncc2)C(c2ccco2)=CC1c1ccccc1[N+](=O)[O-]` (stereo not given): the GI50 is 15.5 µM (inactive) in assay [1]; 4.71 µM (inactive) in assay [2]; 12.1 µM (inactive) in assay [3]; 2.46 µM (inactive) in assay [4]; 1.89 µM in [5]; 4.72 µM (inactive) in assay [6]. Besides, the GI50 in assay [7] is 7.18 µM (inactive); in [8] it was 4.99 µM (inactive); in assay [9], 11.5 µM (inactive); in [10] it was 6.11 µM (inactive); in assay [11] it was 2.16 µM (inactive); in assay [12] it was 1.75 µM (inactive). Moreover, the GI50 in assay [13] is 3.78 µM (inactive); in assay [14], 6.32 µM (inactive); in assay [15], 3.57 µM (inactive); in assay [16] it was 4.65 µM (inactive); in assay [17] it was 2.01 µM (inactive); in [18] it was 5.27 µM (inactive). The GI50 in assay [19] is 5.64 µM (inactive); in assay [20], 10.3 µM (inactive).
As for `O=C1CC[C@@H](C(=O)N2CSC[C@H]2C(=O)O)N1` [PIDOTIMOD] ([pGlu]-[Thz]-OH), the GI50 in assay [1] was > 100 µM (inactive); in assay [2] it was > 100 µM (inactive); in [3] it was > 100 µM (inactive); in [4] it was > 100 µM (inactive); in [5], above 100 µM; in assay [6], > 100 µM (inactive). In addition, the GI50 in assay [7], in [8], in assay [9], in assay [10], in assay [11] and in assay [12] was > 100 µM (inactive) throughout. For the same compound, the GI50 in assay [13], in assay [14], in assay [15], in assay [16], in assay [17] and in assay [18] was > 100 µM (inactive) throughout. Also, the GI50 in [19] and in [20] was > 100 µM (inactive) throughout.
With `COC(=O)c1ccc(C)cc1C1CN=NC12Cc1cccc(C)c1C2=O` (stereo not given), the GI50 in [1] is 71.3 µM (inactive); in assay [2] it was 52.7 µM (inactive); in assay [3], 25.4 µM (inactive); in assay [4] it was 20.2 µM (inactive); in assay [5], 47.2 µM; in [6] it was 57.1 µM (inactive). In addition, the GI50 in assay [7] is > 100 µM (inactive); in [8], 25.1 µM (inactive); in [9] it was 22.5 µM (inactive); in assay [10] it was 63 µM (inactive); in [11], 19.6 µM (inactive); in assay [12], 90.4 µM (inactive). Also, the GI50 was 24.9 µM (inactive) in assay [13]; 30.7 µM (inactive) in assay [14]; 26.7 µM (inactive) in assay [15]; > 100 µM (inactive) in assay [16]; 38.3 µM (inactive) in [17]; 32.8 µM (inactive) in assay [18]. In addition, the GI50 is 34.2 µM (inactive) in assay [19] and 41.1 µM (inactive) in [20].
Take `CSc1nc(O)c(C#N)c(-c2ccc(Cl)cc2)n1`: the GI50 was > 100 µM (inactive) in assay [1]; > 100 µM (inactive) in assay [2]; > 100 µM (inactive) in [3]; 35.5 µM (inactive) in assay [4]; above 100 µM in assay [5]; > 100 µM (inactive) in assay [6]. In addition, the GI50 in assay [7] was 77.4 µM (inactive); in [8], > 100 µM (inactive); in assay [9], 91.4 µM (inactive); in assay [10], > 100 µM (inactive); in assay [11], > 100 µM (inactive); in [12], > 100 µM (inactive). In addition, the GI50 in [13] is 43.7 µM (inactive); in [14], > 100 µM (inactive); in assay [15], 36.5 µM (inactive); in assay [16], 66.7 µM (inactive); in assay [17], > 100 µM (inactive); in assay [18], > 100 µM (inactive). Moreover, the GI50 in assay [19] is 93.8 µM (inactive); in assay [20] it was > 100 µM (inactive).
With `c1ccc([P+](CCN2Cc3ccccc3C2)(c2ccccc2)c2ccccc2)cc1`, the GI50 in [1] was 8.67 µM (inactive); in assay [2] it was 4.56 µM (inactive); in assay [3], 69.5 µM (inactive); in assay [4], 2.77 µM (inactive); in assay [5], 12.7 µM; in [6] it was 5.77 µM (inactive). Further, the GI50 in [7] was 6.7 µM (inactive); in assay [8] it was 3.84 µM (inactive); in assay [9], 4.8 µM (inactive); in assay [10] it was 5.79 µM (inactive); in [11], 6.44 µM (inactive); in assay [12] it was 6.15 µM (inactive). Also, the GI50 was 2.4 µM (inactive) in [13]; 2.74 µM (inactive) in assay [14]; 12.1 µM (inactive) in assay [15]; 5.35 µM (inactive) in assay [16]; 5.69 µM (inactive) in assay [17]; 3.13 µM (inactive) in [18]. For the same compound, the GI50 in assay [19] was 2.12 µM (inactive); in assay [20], 4.99 µM (inactive).
Turning to `N#Cc1cc2c(cc1C#N)SCCSCCCSCCS2`, the GI50 in assay [1] was 1.71 µM (inactive); in assay [2], 41.9 µM (inactive); in [3], 30.5 µM (inactive); in assay [4], > 10 µM (inactive); in assay [5], 14.6 µM; in assay [6] it was 10.3 µM (inactive). In addition, the GI50 in [7] was 6.79 µM (inactive); in assay [8] it was 41.1 µM (inactive); in [9], 21.9 µM (inactive); in assay [10], 15.2 µM (inactive); in assay [11], > 89.9 µM (inactive); in assay [12], 10.4 µM (inactive). For the same compound, the GI50 in assay [13] is 32.4 µM (inactive); in assay [14] it was > 100 µM (inactive); in [15] it was > 53.3 µM (inactive); in assay [16], 5.92 µM (inactive); in assay [17], 6.93 µM (inactive); in [18], 25.2 µM (inactive). In addition, the GI50 in assay [19] is 4.61 µM (inactive); in assay [20], > 83.9 µM (inactive).
As for `O=C1/C(=C\c2ccc([N+](=O)[O-])o2)SC2NC(COc3ccc(Cl)cc3)=NN12` (stereo not given), the GI50 in [1] was 22.5 µM (inactive); in assay [2], 14 µM (inactive); in assay [3], 6.4 µM (inactive); in assay [4] it was 2.16 µM (inactive); in assay [5], 2.07 µM; in [6] it was 3.48 µM (inactive). Moreover, the GI50 in [7] is 16.7 µM (inactive); in assay [8], 18.6 µM (inactive); in assay [9] it was 9.73 µM (inactive); in assay [10], 19.2 µM (inactive); in assay [11], 3.02 µM (inactive); in assay [12] it was 4.1 µM (inactive). Besides, the GI50 in assay [13] was 1.79 µM (inactive); in assay [14], 4.17 µM (inactive); in assay [15] it was 4.62 µM (inactive); in [16] it was 17.6 µM (inactive); in assay [17] it was 1.96 µM (inactive); in assay [18], 6.27 µM (inactive). Further, the GI50 in assay [19] is 15.5 µM (inactive); in [20], 18.3 µM (inactive).
Regarding `COC(=O)C1=C(OC(=O)/C(=C/c2ccccc2)c2ccc(Cl)cc2)C(C(=O)OC)[C@@]2(O)[C@@H](C(=O)OC)[C@H](C)C[C@@H]1[C@@H]2C(=O)OC` (stereo not given in full), the GI50 in assay [1] is > 100 µM (inactive); in [2], > 100 µM (inactive); in [3] it was > 100 µM (inactive); in assay [4], > 100 µM (inactive); in assay [5], above 100 µM; in assay [6], > 100 µM (inactive). For the same compound, the GI50 in [7] was > 100 µM (inactive); in assay [8], > 100 µM (inactive); in assay [9], > 100 µM (inactive); in assay [10], > 100 µM (inactive); in [11], 79.3 µM (inactive); in assay [12], > 100 µM (inactive). The GI50 in assay [13], in assay [14], in [15], in assay [16], in assay [17] and in [18] was > 100 µM (inactive) in each case. The GI50 in assay [19] and in assay [20] was > 100 µM (inactive) in each case.
Consider `COc1cc(C(=O)OC2CC(C)=CC[C@@]3(C)CC[C@](O)(C(C)C)C23)ccc1O` (stereo not given in full), for which the GI50 in assay [1] is 17.2 µM (inactive); in [2], 18.4 µM (inactive); in [3] it was 15.4 µM (inactive); in assay [4], 31.6 µM (inactive); in [5], 18.6 µM; in assay [6], 19.5 µM (inactive). The GI50 in assay [7] was 19.2 µM (inactive); in [8] it was 15.6 µM (inactive); in [9] it was 17.4 µM (inactive); in assay [10], 16.6 µM (inactive); in [11], 13.2 µM (inactive); in assay [12] it was 14.1 µM (inactive). For the same compound, the GI50 in assay [13] was 22.3 µM (inactive); in [14], 30.3 µM (inactive); in assay [15], 16.4 µM (inactive); in assay [16], 18.4 µM (inactive); in assay [17] it was 18.4 µM (inactive); in [18], 18.5 µM (inactive). In addition, the GI50 is 18.7 µM (inactive) in [19] and 12.9 µM (inactive) in assay [20].
`Cn1c(=O)nc2n(-c3ccc(Cl)cc3)c3cc(Cl)ccc3nc-2c1=O`: the GI50 in assay [1] was 18.1 µM (inactive); in assay [2], 6.21 µM (inactive); in assay [3] it was 8.51 µM (inactive); in [4], 2.06 µM (inactive); in assay [5] it was 1.82 µM; in [6], 3.08 µM (inactive). Further, the GI50 in [7] is 14.3 µM (inactive); in assay [8], 25.8 µM (inactive); in assay [9], 9.42 µM (inactive); in assay [10], 10 µM (inactive); in assay [11], 3.61 µM (inactive); in [12], 16.5 µM (inactive). Also, the GI50 is 0.92 µM (active) in assay [13]; 3.2 µM (inactive) in assay [14]; 11.4 µM (inactive) in assay [15]; 4.45 µM (inactive) in assay [16]; 12.6 µM (inactive) in assay [17]; 1.95 µM (inactive) in [18]. The results for the GI50 in assay [19] and in assay [20] were 7.14 µM (inactive) and 12.9 µM (inactive), respectively.
